From article PMC10817170, “Effect of an NHE3 inhibitor in combination with an NPT2b inhibitor on gastrointestinal phosphate absorption in Rodent models” (PLOS ONE, 2024)

Molecular target: T1, Human Pit-2 (Homo sapiens, UniProt Q08357)
T1 construct: expressed in transfected cells; host or cells: CHO cells, constitutive expression
T1 sequence (Q08357 1-652): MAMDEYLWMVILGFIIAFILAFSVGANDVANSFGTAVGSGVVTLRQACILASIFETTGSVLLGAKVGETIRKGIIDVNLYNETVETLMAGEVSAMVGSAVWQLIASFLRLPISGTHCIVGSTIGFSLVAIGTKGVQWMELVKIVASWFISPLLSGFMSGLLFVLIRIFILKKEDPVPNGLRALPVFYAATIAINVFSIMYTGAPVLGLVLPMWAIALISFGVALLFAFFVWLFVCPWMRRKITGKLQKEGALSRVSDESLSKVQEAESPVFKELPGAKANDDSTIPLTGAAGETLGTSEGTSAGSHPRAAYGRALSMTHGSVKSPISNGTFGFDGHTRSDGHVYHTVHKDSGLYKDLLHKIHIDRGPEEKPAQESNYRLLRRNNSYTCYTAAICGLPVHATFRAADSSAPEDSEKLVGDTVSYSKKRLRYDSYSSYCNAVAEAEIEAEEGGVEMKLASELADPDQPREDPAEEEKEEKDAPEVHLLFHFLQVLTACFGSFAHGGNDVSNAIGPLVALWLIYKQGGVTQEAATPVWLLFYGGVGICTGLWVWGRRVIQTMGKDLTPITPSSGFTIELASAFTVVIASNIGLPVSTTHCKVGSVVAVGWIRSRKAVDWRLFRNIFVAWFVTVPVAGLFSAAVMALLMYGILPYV
Assay: Pit-2 activity assay (33P phosphate uptake in CHO cells)
Assay type: cell-based
Details: n=1
Protocol: Generation of constitutive human Pit-2 and SGLT1 overexpressing CHO cells and activity assays measuring the uptake of ^33P phosphate for 45 minutes at 20°C for Pit-2 and ^14C-α-methyl-D-glucopyranoside for 120 minutes at 37°C for SGLT1, were also described previously.

IC50: > 100 µM
SMILES: CN1Cc2c(Cl)cc(Cl)cc2[C@H](c2cccc(S(=O)(=O)NCCOCCOCCN/C(=N\C(N)=O)NCCCCN/C(=N/C(N)=O)NCCOCCOCCNS(=O)(=O)c3cccc([C@@H]4CN(C)Cc5c(Cl)cc(Cl)cc54)c3)c2)C1.Cl.Cl [LY3304000, (Z)-[[4-[[(Z)-N’-carbamoyl-N-[2-[2-[2-[[3-[(4S)-6,8-dichloro-2-methyl-3,4-dihydro-1H-isoquinolin-4-yl]phenyl]sulfonylamino]ethoxy]ethoxy]ethyl]carbamimidoyl]amino]butylamino]-[2-[2-[2-[[3-[(4S)-6,8-dichloro-2-methyl-3,4-dihydro-1H-isoquinolin-4-yl]phenyl]sulfonylamino]ethoxy]ethoxy]ethylamino]methylene]urea dihydrochloride]
